Measurements from patent US11365174B2 (priority 2016, dated 2022).
“Also recorded” adds a separate entry of the source. Like-named read-outs stand apart in the source and are kept apart here.

System: Influenza A virus strain A/Puerto Rico/8/1934 H1N1 (PR8; amantadine-resistant)
Type: cell-based
Settings: for antiviral activity for the PR8 strain (NA activity as read-out for viral protein synthesis/replication): L929 cells, 18-20 hours, fluorescence normalized to DMSO; for antiviral activity for the PR8 strain (NA activity as read-out for viral protein synthesis/replication) / selective activity against PR8 strain in first screen of docking hits: half-log dilutions; for potency of antiviral activity for the PR8 strain compared to amantadine or to other compounds of the class: comparison within figure; for selective activity against PR8 strain in first screen of docking hits: 1-10 uM, alongside DMSO and amantadine, normalized to DMSO

Structure (SMILES): CC12CC3CC(C)(C1)CC(C(=O)Nc1ccc([N+](=O)[O-])cc1)(C3)C2 [analog 18, 3,5-dimethyl-N-(4-nitrophenyl)adamantane-1-carboxamide]
- antiviral activity for the PR8 strain (NA activity as read-out for viral protein synthesis/replication): antiviral activity for the PR8 strain
- potency of antiviral activity for the PR8 strain compared to amantadine or to other compounds of the class: the most potent

Structure (SMILES): O=[N+]([O-])c1ccc(C23CC4CC(CC(C4)C2)C3)cc1 [analog 23, 1-(4-nitrophenyl)adamantane]
- antiviral activity for the PR8 strain (NA activity as read-out for viral protein synthesis/replication): antiviral activity for the PR8 strain

Structure (SMILES): O=C(CC12CC3CC(CC(C3)C1)C2)Nc1ccc([N+](=O)[O-])cc1 [compound 16, 2-(1-adamantyl)-N-(4-nitrophenyl)acetamide]
- antiviral activity for the PR8 strain (NA activity as read-out for viral protein synthesis/replication): antiviral activity for the PR8 strain
- selective activity against PR8 strain in first screen of docking hits: selective activity against PR8 strain

Structure (SMILES): COc1ccccc1CNS(=O)(=O)c1c(C)cc([N+](=O)[O-])cc1C [JDB-0120]
- potency of antiviral activity for the PR8 strain compared to amantadine or to other compounds of the class: the most potent inhibitors of NA activity and PR8 virus replication; also recorded: the greatest activity for small molecules; also recorded: the greatest biological activity in the sulfonamide series

Structure (SMILES): Cc1cc([N+](=O)[O-])ccc1NC(=O)CC12CC3CC(CC(C3)C1)C2 [analog 21, 2-(1-adamantyl)-N-(2-methyl-4-nitrophenyl)acetamide]
- antiviral activity for the PR8 strain (NA activity as read-out for viral protein synthesis/replication): antiviral activity for the PR8 strain

Structure (SMILES): Cc1cc(C)c(S(=O)(=O)NCc2ccccc2Cl)c(C)c1 [analog 11, N-[(2-chlorophenyl)methyl]-2,4,6 trimethylbenzenesulfonamide]
- antiviral activity for the PR8 strain (NA activity as read-out for viral protein synthesis/replication): potent inhibitors of NA activity and PR8 virus replication; also recorded: antiviral activity for the PR8 strain
- potency of antiviral activity for the PR8 strain compared to amantadine or to other compounds of the class: the most potent

Structure (SMILES): Cc1cccc(CNS(=O)(=O)c2c(C)cc(C)cc2C)c1 [analog 7, 2,4,6-trimethyl-N-[(3-methylphenyl)methyl]benzenesulfonamide]
- antiviral activity for the PR8 strain (NA activity as read-out for viral protein synthesis/replication): potent inhibitors of NA activity and PR8 virus replication; also recorded: antiviral activity for the PR8 strain
- potency of antiviral activity for the PR8 strain compared to amantadine or to other compounds of the class: more potent antiviral activity; also recorded: more potent than amantadine

Structure (SMILES): NC12CC3CC(CC(C3)C1)C2 [amantadine, reference compound]
- antiviral activity for the PR8 strain (NA activity as read-out for viral protein synthesis/replication): moderately inhibited PR8 replication at high enough concentrations
- antiviral activity for the PR8 strain (NA activity as read-out for viral protein synthesis/replication) (listed as Amantadine): moderately inhibit the replication of the PR8 strain

Structure (SMILES): COc1cc(C2OCC3(CO)C(C)C=C(C)C2C3C)ccc1O (stereo not drawn) [analog 5, 4-[5-(hydroxymethyl)-2,4,9-trimethyl-7-oxabicyclo[3.3.1]non-2-en-8-yl]-2-methoxyphenol]
- antiviral activity for the PR8 strain (NA activity as read-out for viral protein synthesis/replication): antiviral activity for the PR8 strain
- potency of antiviral activity for the PR8 strain compared to amantadine or to other compounds of the class: more potent antiviral activity

Structure (SMILES): COc1ccc(C2OCC3(CO)C(C)C=C(C)C2C3C)cc1 (stereo not drawn) [analog 2, [8-(4-methoxyphenyl)-2,4,9-trimethyl-7-oxabicyclo[3.3.1]non-2-en-5-yl]methanol]
- antiviral activity for the PR8 strain (NA activity as read-out for viral protein synthesis/replication): antiviral activity for the PR8 strain
- potency of antiviral activity for the PR8 strain compared to amantadine or to other compounds of the class: more potent antiviral activity

Structure (SMILES): CC1=CCC2CC1C(c1ccc(O)cc1)OC2(C)C (stereo not drawn) [analog 4, 4-(2,2,6-trimethyl-3-oxabicyclo[3.3.1]non-6-en-4-yl)phenol]
- antiviral activity for the PR8 strain (NA activity as read-out for viral protein synthesis/replication): antiviral activity for the PR8 strain
- potency of antiviral activity for the PR8 strain compared to amantadine or to other compounds of the class: the most potent; also recorded: more potent antiviral activity

Structure (SMILES): Cc1cc([N+](=O)[O-])cc(C)c1S(=O)(=O)NCc1ccccc1Cl [JDB-0121]
- potency of antiviral activity for the PR8 strain compared to amantadine or to other compounds of the class: the most potent inhibitors of NA activity and PR8 virus replication; also recorded: the greatest activity for small molecules; also recorded: the greatest biological activity in the sulfonamide series

Structure (SMILES): O=[N+]([O-])c1ccc(C23CC4CC(CC(O)(C4)C2)C3)cc1 [compound 19, 3-(4-nitrophenyl)adamantan-1-ol]
- antiviral activity for the PR8 strain (NA activity as read-out for viral protein synthesis/replication): antiviral activity for the PR8 strain
- selective activity against PR8 strain in first screen of docking hits: selective activity against PR8 strain

Structure (SMILES): COc1ccccc1CNS(=O)(=O)c1c(C)cc(C)cc1C [analog 31, N-[(2-methoxyphenyl)methyl]-2,4,6 trimethylbenzenesulfonamide]
- antiviral activity for the PR8 strain (NA activity as read-out for viral protein synthesis/replication): potent inhibitors of NA activity and PR8 virus replication; also recorded: antiviral activity for the PR8 strain
- potency of antiviral activity for the PR8 strain compared to amantadine or to other compounds of the class: the greatest activity

Structure (SMILES): Cc1cc(C)c(S(=O)(=O)NCc2ccccc2)c(C)c1 [compound 3, N-benzyl-2,4,6-trimethylbenzenesulfonamide]
- antiviral activity for the PR8 strain (NA activity as read-out for viral protein synthesis/replication): antiviral activity for the PR8 strain
- potency of antiviral activity for the PR8 strain compared to amantadine or to other compounds of the class: more potent than amantadine
- selective activity against PR8 strain in first screen of docking hits: selective activity against PR8 strain
